Laboratory results reported in US7750148B2, “Intermediate compound for the production of β-lactamase-resistant cephalosporin ester compounds and salts thereof” (Zhejiang Yongning Pharmaceutical Factory, priority 2003, dated 2010).
Read-outs that look alike come from different tables or passages of the source.

Experiments:
[1] = test system: type II, III, IV, V β-lactamase; details: at a concentration of 2 μg/ml; cited from earlier work
[2] = test system: Bacillus pneumoniae 46101; assay: In vitro antibacterial activity (MIC, agar double dilution); type: cell-based; details: read-out: MIC of the drug to bacteria
From the text: (§1) tested samples YR-1, YR-2 were the ones prepared in example 1 and example 5 respectively, control samples were cefetamet sodium (CTM), cefuroxime sodium (CRX), cefetamet sodium+sulbactam sodium (CTM+SBT) (molar ratio 1:1), cefuroxime+sulbactam sodium (CRX+SBT) (molar ratio 1:1). All control samples (have been sold on the market) were supplied by Zhejiang Yongning pharmaceutical factory.
(§2) Staphylococcus aureus 26003, Diplococcus lanceolatus 31002, E. coli 44102, Shigella sonnet 51081, Shigella bogdii 51313, Shigella flexneri 51573, Proteus mirabilis 49005, Bacillus proteus 49085, Proteus morganii 49086, Pseudomonas aeruginosa 10124, Bacillus pneumoniae 46101, Salmonella enteritidis 50041, Salmonella typhi 50097, Citrobacter 48017, Candida ciferii 41002 were supplied by Shanghai Hygienic and Antiepidemic Station.
(§3) Mueller-Hinton Agar (M.H) culture medium, batch number 20040528 (Shanghai Reagent Supply Research Center, China Diarrhea Disease Control).
(§4) Adopted agar double dilution, inoculated using multipoint inoculator, inoculated 10^5CFU/ML each point, cultured for 24 hours at 37° C., observed and recorded the results, set the least concentration of the antibacterial drug that can inhibit bacteria growth as the minimum inhibitory concentration (MIC).

Bacillus proteus 49085 = assay: as above; type: cell-based; details: read-out: MIC of the drug to bacteria
From the text: as §1, §2, §3, §4

Candida ciferii 41002 = assay: as above; type: cell-based; details: read-out: MIC of the drug to bacteria
From the text: as §1, §2, §3, §4

Citrobacter 48017 = assay: as above; type: cell-based; details: Citrobacter, 48017, 24 h, read-out: MIC of the drug to bacteria
From the text: as §1, §2, §3, §4

[3] = test system: Diplococcus lanceolatus 31002; assay: as above; type: cell-based; details: read-out: MIC of the drug to bacteria
From the text: as §1, §2, §3, §4

E. coli 44102 = assay: as above; type: cell-based; details: read-out: MIC of the drug to bacteria
From the text: as §1, §2, §3, §4

Proteus mirabilis 49005 = assay: as above; type: cell-based; details: Proteus mirabilis, 49005, 24 h, read-out: MIC of the drug to bacteria
From the text: as §1, §2, §3, §4

[4] = test system: Pseudomonas aeruginosa 10124; assay: as above; type: cell-based; details: read-out: MIC of the drug to bacteria
From the text: as §1, §2, §3, §4

[5] = test system: Salmonella enteritidis 50041; assay: as above; type: cell-based; details: Salmonella enterica, read-out: MIC of the drug to bacteria
From the text: as §1, §2, §3, §4

Salmonella typhi 50097 = assay: as above; type: cell-based; details: Salmonella enterica, 10^5CFU/ML each point, 24 hours at 37° C., read-out: MIC of the drug to bacteria
From the text: as §1, §2, §3, §4

Shigella bogdii 51313 = assay: as above; type: cell-based; details: Shigella, 51313, 24 h, read-out: MIC of the drug to bacteria
From the text: as §1, §2, §3, §4

Shigella flexneri 51573 = assay: as above; type: cell-based; details: Shigella flexneri, 51573, 24 h, read-out: MIC of the drug to bacteria
From the text: as §1, §2, §3, §4

Shigella sonnet 51081 = assay: as above; type: cell-based; details: Shigella, 51081, 24 h, read-out: MIC of the drug to bacteria
From the text: as §1, §2, §3, §4

[6] = test system: Staphylococcus aureus 26003; assay: as above; type: cell-based; details: Staphylococcus aureus, 26003, 24 h, read-out: MIC of the drug to bacteria
From the text: as §1, §2, §3, §4

Proteus morganii 49086 = assay: as above; type: cell-based
From the text: as §1, §2, §3, §4

Bacillus aerogenes 45102 = assay: as above; type: cell-based; details: Bacillus, 45102, 24 h, read-out: MIC of the drug to bacteria
From the text: as §1
(§5) Staphylococcus epidermidis 26069 and Bacillus aerogenes 45102 were supplied by Beijing Drug & Biology Product Appraisal Bureau.
as §3, §4

[7] = test system: Staphylococcus epidermidis 26069; assay: as above; type: cell-based; details: read-out: MIC of the drug to bacteria
From the text: as §1, §5, §3, §4

[8] = test system: Diplococcus lanceolatus 0031; assay: as above; type: cell-based; details: read-out: MIC of the drug to bacteria
From the text: as §1
Diplococcus lanceolatus 0031 was supplied by Shanghai First People's Hospital.
as §3, §4

[9] = test system: Bacillus proteus 49085, Proteus morganii 49086; assay: Ex vivo antibacterial activity experiment after mouse is administered, conclusions (strains not separated); type: in vivo; details: mice, intravenous injection 500 mg/kg
From the text: the sources of tested samples (YR-1, YR-2) and control samples (CTM, CRX, CTM+SBT 1:1 and CRX+SBT 1:1) are the same as above. Bacillus proteus 49085, Proteus morganii 49086, inoculated 10^5CFU/ML each dish. Mueller-Hinton Agar (M.H) culture medium, batch number 000707 (Shanghai Reagent Supply Research Center, China Diarrhea Disease Control). Strain: Kunming mice; source: Animal Facility of Shanghai Institute of Pharmaceutical Industry; certificate number: Hudonghezhengzi No. 107; animal numbers: 120; Sex: same number of male and female mice; Body weight: 18-21 g; fast time: 16 hours. Group 1: CTM, CRX, CTM+SBT 1:1, CRX+SBT 1:1 were given at a dosage of 500 mg/kg intravenously, collecting blood at 10 minutes, 30 minutes, 1 hour, 2 hours, 4 hours, 8 hours after administration. Group 2: […] Kunming mice were randomly divided into several groups according to body weight of empty stomach and sex. Collecting blood of three mice at different time point, anticoagulated with heparin, centrifugated and separated plasma, quantitative spotting, semi-quantitated antibacterial activity according to the size of bacterial inhibition ring.

Structure (SMILES): CC1(C)[C@H](C(=O)O)N2C(=O)C[C@H]2S1(=O)=O [Sulbactam]
- inhibition to β-lactamase [1]: extremely strong inhibition

Structure (SMILES): CO/N=C(\C(=O)N[C@@H]1C(=O)N2C(C(=O)O)=C(COC(N)=O)CS[C@H]12)c1ccco1 [CRX, cefuroxime sodium, reference compound]
- MIC ([2]; Klebsiella pneumoniae, Bacillus pneumoniae 46101, 10^5CFU/ML each point, 24 hours at 37° C.): 25 mg/L
- MIC (Bacillus proteus 49085; Bacillus proteus 49085, 10^5CFU/ML each point, 24 hours at 37° C.): 0.78 mg/L
- MIC (Candida ciferii 41002; Candida ciferii 41002, 10^5CFU/ML each point, 24 hours at 37° C.): 25 mg/L
- MIC (Citrobacter 48017): 1.56 mg/L
- MIC ([3]; Diplococcus lanceolatus 31002, 10^5CFU/ML each point, 24 hours at 37° C.): 25 mg/L
- MIC (E. coli 44102; Escherichia coli, E. coli 44102, 10^5CFU/ML each point, 24 hours at 37° C.): 6.25 mg/L
- MIC (Proteus mirabilis 49005): 1.56 mg/L
- MIC ([4]; Pseudomonas aeruginosa 10124, 10^5CFU/ML each point, 24 hours at 37° C.): 100 mg/L
- MIC ([5]; Salmonella enteritidis 50041, 10^5CFU/ML each point, 24 hours at 37° C.): 6.25 mg/L
- MIC (Salmonella typhi 50097): 3.13 mg/L
- MIC (Shigella bogdii 51313): 1.56 mg/L
- MIC (Shigella flexneri 51573): 1.56 mg/L
- MIC (Shigella sonnet 51081): 0.78 mg/L
- MIC [6]: 1.56 mg/L
- MIC (Proteus morganii 49086; Morganella morganii, Proteus morganii 49086, 10^5CFU/ML each point, 24 hours at 37° C., read-out: MIC of the drug to bacteria): 100 mg/L
- MIC (Bacillus aerogenes 45102): 3.13 mg/L
- MIC ([7]; Staphylococcus epidermidis 26069, 10^5CFU/ML each point, 24 hours at 37° C.): 0.39 mg/L
- MIC ([8]; Diplococcus lanceolatus 0031, 10^5CFU/ML each point, 24 hours at 37° C.): 0.78 mg/L
- antibacterial activities in blood 8 hours after administration [9]: can not be detected

Structure (SMILES): CO/N=C(\C(=O)N[C@@H]1C(=O)N2C(C(=O)O)=C(C)CS[C@H]12)c1csc(N)n1 [CTM, cefetamet sodium, reference compound]
- MIC ([2]; Klebsiella pneumoniae, 46101, 24 h): 0.78 mg/L
- MIC (Bacillus proteus 49085; Bacillus, 49085, 24 h): 0.195 mg/L
- MIC (Candida ciferii 41002; Candida, 41002, 24 h): 0.78 mg/L
- MIC (Citrobacter 48017): 1.56 mg/L
- MIC ([3]; 24 h): > 100 mg/L
- MIC (E. coli 44102; Escherichia coli, 44102, 24 h): 0.78 mg/L
- MIC (Proteus mirabilis 49005): 0.195 mg/L
- MIC ([4]; Pseudomonas aeruginosa, 10124, 24 h): 100 mg/L
- MIC ([5]; ENTERITIDIS, 24 h): 0.78 mg/L
- MIC (Salmonella typhi 50097): 0.78 mg/L
- MIC (Shigella bogdii 51313): 0.39 mg/L
- MIC (Shigella flexneri 51573): 0.78 mg/L
- MIC (Shigella sonnet 51081): 0.39 mg/L
- MIC [6]: 100 mg/L
- MIC (Proteus morganii 49086; Morganella morganii, 49086, 24 h, read-out: MIC of the drug to bacteria): > 100 mg/L
- MIC (Proteus morganii 49086; Morganella morganii, 49086, read-out: MIC (as restated in the conclusions)): > 100000 mg/L
- MIC (Bacillus aerogenes 45102): 0.195 mg/L
- MIC ([7]; Staphylococcus epidermidis, 26069, 24 h): 12.5 mg/L
- MIC ([8]; 24 h): 25 mg/L
- antibacterial activities in blood 8 hours after administration [9]: can not be detected
